In PubChem BioAssay (NCI):
Several values for one entry are separate records, joined by “and”; a condition that tells them apart may be missing. Equal values may be shown once.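 In this assay, cells in 96-well plates receive the compound at five concentrations for 48 hours. Endpoints are linearly interpolated between the surrounding concentrations. The concentration for 50% growth inhibition is given as GI50. TGI marks complete inhibition of growth.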

System: MDA-MB-468 breast
Experiment: DTP human tumour cell line panel, 48 h

SMILES	GI50	TGI
CNC(=O)c1ccccc1Nc1nc(Nc2ccc3c(c2OC)CCC[C@H](N2CCN(CCO)CC2)C3)ncc1Cl	1210 nM and 696 nM	3330 nM and 2500 nM
COc1cc2nccc(Oc3ccc(NC(=O)c4cn(C(C)C)c(=O)n(-c5ccc(F)cc5)c4=O)cc3F)c2cc1OC	> 100000 nM	> 100000 nM
CC/C(=C/c1ccc(OC)cc1OC)[N+](=O)[O-]	2020 nM	4300 nM
CCn1c(-c2nonc2N)nc2c(N3CCCC3)nccc21	8920 nM	> 25000 nM
c1ccc2c(c1)cc1ccc3cccc4ccc2c1c34	157 nM	312 nM
CNC(=O)c1cncc(/C=C/c2ccccc2Cl)c1	9170 nM	> 25000 nM
CS(=O)(=O)N(c1cc(-c2ccc3ncnc(Nc4ccc(F)c(Cl)c4)c3c2)cnc1Cl)S(C)(=O)=O	467 nM	2550 nM
COC[C@]12CCC(C)(C)C[C@H]1C1=CC[C@@H]3[C@@]4(C)CCCNC(C)(C)[C@@H]4CC[C@@]3(C)[C@]1(C)CC2	1530 nM	3230 nM
CCn1c2ccccc2c2cc(C(=O)c3ccc(C)c4ccccc34)ccc21	291 nM	918 nM
COc1cc(C(=O)c2cocc2C(=O)c2ccc3c(c2)OCO3)cc(OC)c1OC	4050 nM	> 100000 nM
CC(C)c1ccc(NC(=O)Cc2ccc(Nc3ncnc4cc(-c5cnn(CCN(C)C)c5)ccc34)cc2)cc1	1340 nM	3720 nM
O=C(Nc1cccc(C(F)(F)F)c1)Oc1ccc(Cl)c2cccnc12	1790 nM	4280 nM
O=C(/C=C/C12c3ccccc3C(c3ccccc31)C1C(=O)NC(=O)C12)c1ccccc1 (centres undefined)	1720 nM	3680 nM
O=P(O)(O)OCC1OC(n2cnc3c(NCc4ccccc4)ncnc32)C(O)C1O (centres undefined)	925 nM	4120 nM
COc1ccc(S(=O)(=O)N(C(C)=O)c2ccccc2/C=C/c2cc[n+]([O-])cc2)cc1	461 nM	> 10000 nM
O=c1[nH]c(=O)n(C2CC(O)C(CO)O2)cc1C(F)(F)F (centres undefined)	> 85400 nM	> 100000 nM
COc1cc(NCCCCCN=C(N)NC(N)=NC(C)C)c2ncccc2c1	90.3 nM	594 nM
O=C1c2cc3c(cc2-c2c1c1ccc(Cl)cc1c(=O)n2CCCn1ccnc1)OCO3	< 10 nM	14.4 nM
COc1ccc2[nH]c(C(=O)OCc3ccc4c(Cl)cc(Cl)c(O)c4n3)cc2c1	1360 nM	2770 nM
C[N+](C)=c1ccc2nc3c(cc(NCCCNc4cc5oc6cc(=[N+](C)C)ccc-6nc5c5ccccc45)c4ccccc43)oc-2c1	193 nM	1350 nM
Nc1cccc2c1C(=O)c1cccc(NC(=O)c3ccccc3)c1C2=O	577 nM	7030 nM
CC[C@H](C)[C@H](NC(=O)c1cccn1C)C(=O)N(C)[C@H](C[C@@H](OC(C)=O)c1nc(C(=O)N[C@@H](Cc2ccccc2)C[C@H](C)C(=O)OC)cs1)C(C)C	68.3 nM	10800 nM
